# According to patent publication US12042523B2, “Compositions and methods for managing or improving bone disorders, joint disorders, cartilage disorders, or a combination thereof” (Unigen, Inc., priority 2014, dated 2024):
# System: MIA-induced osteoarthritis in Sprague-Dawley rats
# Assay: Bone histomorphometry (Micro CT) in therapeutic MIA induced osteoarthritis model
# Format: in vivo, rat
# Description: Male Sprague-Dawley (SD) rats weighing 170˜230 g (6 weeks of age) were purchased and acclimated for one week. […] Anesthetized rats were injected with 0.8 mg of MIA in 50 μl saline solution into the intra-articular pocket. One week after MIA induction, samples were administrated daily with gastric tube for 6 weeks. Bone histomorphometry was evaluated on both femur and tibia per knee joint in rats from the MIA-induced osteoarthritis model by Micro CT scan using an Inveon™ unit (Siemens Healthcare USA, Inc., Pennsylvania, USA) at Korea Basic science institute, Ochang, Korea. BMD was used as an indicator of osteoporosis and fracture risk; BV/TV as an indicator of trabecular bone volume refers to the ratio of the trabecular bone volume to the total volume; BS/BV as an indicator of trabecular turnover refers to the ratio of the trabecular bone surface to the trabecular bone volume of a region of interest.
# [1] = treatment from one week after MIA, daily 6 weeks, Diclofenac 10 mg/kg, GM 500 mg/kg, mean ± SD
smiles,measurement,setting,value
O=C(O)Cc1ccccc1Nc1c(Cl)cccc1Cl [Diclofenac],BV/TV compared with vehicle group,therapeutic MIA model,decreasing tendency
same,BMD (mg/cm3),[1],896.2 ± 29.4 mg/cm3
same,BS/BV,[1],9.11 ± 1.41
same,BV/TV (%),[1],65.35 ± 7.75%
